Reference: patent US20070243262A1, “Stable S-nitrosothiol formulations” (priority 2005, published 2007)

Experiments:
[1] = GSNO API (powder) stability by HPLC; assay type: physicochemical; settings: for GSNO % w/w at 5° C. / GSNO % w/w at −20° C. / GSNO % w/w at −80° C.: GSNO powder, HPLC
Experimental: GSNO powder was tested for stability at various temperatures over a three-month period of time, and each formulation was tested for stability at various temperatures over a six month period of time. Stability was determined by HPLC analysis at various times throughout the test period.

[2] = cited from earlier work

GSNO % w/w at 5° C. ([1]; 0 elapsed days): 92.7 % w/w | GSNO % w/w at 5° C. ([1]; 14 elapsed days): 84.6 % w/w | GSNO % w/w at 5° C. ([1]; 30 elapsed days): 89.2 % w/w | GSNO % w/w at 5° C. ([1]; 90 elapsed days): 80.0 % w/w | GSNO % w/w at −20° C. ([1]; 0 elapsed days): 92.7 % w/w | GSNO % w/w at −20° C. ([1]; 14 elapsed days): 90.6 % w/w | GSNO % w/w at −20° C. ([1]; 30 elapsed days): 91.1 % w/w | GSNO % w/w at −20° C. ([1]; 90 elapsed days): 89.7 % w/w | GSNO % w/w at −80° C. ([1]; 0 elapsed days): 92.7 % w/w | GSNO % w/w at −80° C. ([1]; 30 elapsed days): 91.4 % w/w | GSNO % w/w at −80° C. ([1]; 90 elapsed days): 91.9 % w/w | stability of GSNO powder (in words) ([1]; temperatures above 0° C.): rapidly degrades
SMILES: N[C@@H](CCC(=O)N[C@@H](CSN=O)C(=O)NCC(=O)O)C(=O)O [GSNO, S-nitrosoglutathione]
stability in aqueous solutions [2]: decomposing in hours
